Measurements taken from patent publication US20240417764A1, “METHODS FOR THE PRODUCTION OF TRYPTOPHANS, TRYPTAMINES, INTERMEDIATES, SIDE PRODUCTS AND DERIVATIVES” (priority 2021, published 2024).

Tests used:
[1] = target: T1, endogenous Escherichia coli tryptophan synthase beta subunit (TrpB) (Escherichia coli, UniProt P0A879); assay: TrpB substrate flexibility, in vivo conversion of substituted indoles to tryptophans; assay type: cell-based; conditions: sampled at 24 h
T1 construct: Yield for production of tryptophan derivatives by native E. coli TrpB from indole derivatives; endogenous in cells; host or cells: E. coli BL21 Star (DE3) carrying pETM6-SDM2x (empty vector for the TrpB-alone study)
T1 sequence (P0A877 whole entry): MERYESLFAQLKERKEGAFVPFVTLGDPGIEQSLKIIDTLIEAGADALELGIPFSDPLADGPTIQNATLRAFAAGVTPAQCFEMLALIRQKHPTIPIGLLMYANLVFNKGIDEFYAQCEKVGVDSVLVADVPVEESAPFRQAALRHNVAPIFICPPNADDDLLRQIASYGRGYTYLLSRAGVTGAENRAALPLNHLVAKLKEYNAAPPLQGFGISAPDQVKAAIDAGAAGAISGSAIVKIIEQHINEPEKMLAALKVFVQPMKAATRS
T1 sequence (P0A879 2-397): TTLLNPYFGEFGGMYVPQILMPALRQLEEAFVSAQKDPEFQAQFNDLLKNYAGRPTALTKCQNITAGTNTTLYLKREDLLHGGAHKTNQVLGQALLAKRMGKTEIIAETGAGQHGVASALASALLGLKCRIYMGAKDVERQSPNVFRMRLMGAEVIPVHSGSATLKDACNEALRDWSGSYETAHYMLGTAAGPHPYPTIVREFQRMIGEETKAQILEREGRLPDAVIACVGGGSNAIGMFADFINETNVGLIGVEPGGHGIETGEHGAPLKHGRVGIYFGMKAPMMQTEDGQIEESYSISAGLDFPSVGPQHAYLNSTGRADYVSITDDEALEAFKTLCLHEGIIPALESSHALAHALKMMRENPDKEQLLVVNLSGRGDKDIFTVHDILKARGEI
Source text: (§1) Four previously constructed BL21 Star™ (DE3) cell lines with pETM6-SDM2x plasmid backbones were used, each with endogenous Escherichia coli (E. coli) tryptophan synthase beta subunit (TrpB); (1) no gene insert (empty vector), (2) PsiD gene insert with T7 promoter, (3) PsiD-PsiK gene insert with C4 promoter in operon configuration (pNor, Norbaeocystin Production Strain) (Adams et al., 2022), and (4) PsiD-PsiK-PsiM gene insert with H10 promoter in operon configuration (pSilo16, Psilocybin Production Strain; See WO 2021/086513) (Adams et al., 2019). For the PsiD transcriptional optimization study, each of the nine previously described library members were used, in lieu of the strains above. Overnight cultures were grown in Andrew's Magic Media (AMM) without MOPS, appropriate antibiotics for plasmid retention, and were inoculated from freezer stocks. Experimental cultures were incubated in covered 48-well plates at 37° C. in a shaking incubator. AMM media consistent with above was inoculated at 2% final volume of respective overnight culture and 2 mL aliquoted to each well. Indole derivatives were added to each well, except negative control, at 100 mg/L using 5 uL from a 40 mg/mL stock in EtOH. 4-Nitroindole at 13.3 mg/mL in EtOH was added using 15 uL due to solubility limitations. Cultures were induced at 2 hours using 1 mM ITPG. Cultures were sampled at 24 hours and subjected to LC-MS analysis as described below. Cultures with serine added were identical to those without, except for adding 4.5 g/L of serine prior to inoculation.
Without commercially available standards for many of these compounds absolute quantification of enzymatic products is not possible. Peak areas from one substituted indole could not be compared directly to peak areas from another substituted indole due to significant differences in extinction coefficients. Relative quantification was performed by comparing product UV 280 nm peak areas from HPLC analysis (mAU*min) to that of the corresponding substituted indole. TrpB proficiencies with and without serine were calculated by dividing the tryptophan product peak areas by the total peak areas from the indole and tryptophan peaks. Tryptophan and indole peak areas were determined from duplicate samples with indole and subtraction of any time-correlated peak areas found in the samples without indole addition. Any other indole related peak areas found in indole samples were included in the denominator. Indole related peaks were defined as peaks found in indole samples, but absent from samples without indole addition. Similar calculations were performed for PsiD proficiencies where tryptamine peak areas were divided by the total area of associated tryptamine and tryptophan peaks. Indole utilization was also calculated for PsiD proficiencies where the remaining indole peak areas were divided by the initial peak areas.

[2] = test system: E. coli BL21 Star (DE3); assay: Culture growth of E. coli production host supplemented with indole derivatives; assay type: cell-based, Escherichia coli; conditions: indole derivative 100 mg/L in 48-well culture, 37 C, compared visually with other indoles
Source text: as §1
Other indoles may have slowed cell growth, but the differences were not easily distinguishable visually as OD600 reading were not taken for every sample.

[3] = target: T2, P. cubensis PsiD (Psilocybe cubensis, UniProt P0DPA6, L22F); assay: PsiD substrate flexibility, in vivo decarboxylation of substituted tryptophans to tryptamines; assay type: cell-based, Escherichia coli; conditions: in vivo in E. coli expressing PsiD, HPLC/LCMS detection
T2 construct: expressed in transfected cells; host or cells: E. coli BL21 Star (DE3); PsiD insert with the T7 promoter, or promoter/backbone library members, or pNor and pSilo16
T2 sequence (P0DPA6 whole entry, stated change not applied): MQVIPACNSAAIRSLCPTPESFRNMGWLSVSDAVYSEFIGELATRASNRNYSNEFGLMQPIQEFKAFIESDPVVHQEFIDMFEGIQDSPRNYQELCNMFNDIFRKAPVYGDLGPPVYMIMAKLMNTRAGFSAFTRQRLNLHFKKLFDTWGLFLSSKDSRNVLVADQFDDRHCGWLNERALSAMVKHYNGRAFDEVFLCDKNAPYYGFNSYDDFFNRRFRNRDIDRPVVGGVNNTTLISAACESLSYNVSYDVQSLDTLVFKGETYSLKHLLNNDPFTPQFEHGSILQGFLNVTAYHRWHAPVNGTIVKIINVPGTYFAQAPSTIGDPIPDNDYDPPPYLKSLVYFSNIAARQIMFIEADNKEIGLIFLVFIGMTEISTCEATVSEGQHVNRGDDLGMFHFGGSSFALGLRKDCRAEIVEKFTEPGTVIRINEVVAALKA
Source text: as §1, with “Indole derivatives were added to each well, except negative control, at 100 mg/L using 5 uL from a 40 mg/mL stock in EtOH. 4-Nitroindole at 13.3 mg/mL in EtOH was added using 15 uL due to solubility limitations. Cultures were induced at 2 hours using 1 mM ITPG. Cultures were sampled at 24 hours and subjected to LC-MS analysis as described below. Cultures with serine added were identical to those without, except for adding 4.5 g/L of serine prior to inoculation.” left out
Without commercially available standards for many of these compounds absolute quantification of enzymatic products is not possible. […] Relative quantification was performed by comparing product UV 280 nm peak areas from HPLC analysis (mAU*min) to that of the corresponding substituted indole. TrpB proficiencies with and without serine were calculated by dividing the tryptophan product peak areas by the total peak areas from the indole and tryptophan peaks. Tryptophan and indole peak areas were determined from duplicate samples with indole and subtraction of any time-correlated peak areas found in the samples without indole addition. […] Indole utilization was also calculated for PsiD proficiencies where the remaining indole peak areas were divided by the initial peak areas.
PsiD substrate flexibility was evaluated jointly in vivo with TrpB, such that if indoles were not sufficiently processed by TrpB, then PsiD activity could not be evaluated. […]

[4] = without supplemental serine, indole 100 mg/L, tryptophan peak area / total indole-related peak areas (UV 280 nm)
[5] = with supplemental serine 4.5 g/L

Row | Compound | TrpB proficiency (class) [1, 4] | culture growth retardation (toxicity effects of the indole derivatives) [2] | TrpB proficiency [1, 5] [%] | further results
1 | Clc1cc2ccccc2[nH]1 [2-chloroindole] | moderate (35-65%) or low proficiency (5-35%) | – | – | –
2 | Ic1ccc2cc[nH]c2c1 [6-iodoindole] | moderate (35-65%) or low proficiency (5-35%) | significant culture growth retardation | – | –
3 | Brc1ccc2[nH]ccc2c1 [5-bromoindole] | – | significant culture growth retardation | – | –
4 | Oc1cccc2[nH]ccc12 [4-hydroxyindole] | – | – | 100 | –
5 | Clc1ccc2[nH]ccc2c1 [5-chloroindole] | – | significant culture growth retardation | – | –
6 | Ic1cccc2[nH]ccc12 [4-iodoindole] | moderate (35-65%) or low proficiency (5-35%) | significant culture growth retardation | – | –
7 | Fc1ccc2cc[nH]c2c1 [6-fluoroindole] | moderate (35-65%) or low proficiency (5-35%) | significant culture growth retardation | – | –
8 | COc1ccc2[nH]ccc2c1 [5-methoxyindole] | moderate (35-65%) or low proficiency (5-35%) | – | – | –
9 | Oc1ccc2[nH]ccc2c1 [5-hydroxyindole] | moderate (35-65%) or low proficiency (5-35%) | – | – | –
10 | Ic1ccc2[nH]ccc2c1 [5-iodoindole] | – | significant culture growth retardation | – | –
11 | COc1cccc2cc[nH]c12 [7-methoxyindole] | – | – | 100 | –
12 | O=[N+]([O-])c1ccc2cc[nH]c2c1 [6-nitroindole] | – | significant culture growth retardation | – | –
13 | Ic1cccc2cc[nH]c12 [7-iodoindole] | – | – | 100 | –
14 | Cc1ccc2[nH]ccc2c1 [5-methylindole] | moderate (35-65%) or low proficiency (5-35%) | – | – | –
15 | Oc1ccc2cc[nH]c2c1 [6-hydroxyindole] | – | – | 3 | –
16 | Cc1[nH]c2ccccc2c1C[C@H](N)C(=O)O [2-methyltryptophan] | – | – | – | PsiD conversion to tryptamine product [3]: neither tryptamine product was observed
17 | Cc1cccc2cc[nH]c12 [7-methylindole] | – | – | 100 | –

Row | Compound | TrpB proficiency (class) [1, 4] | culture growth retardation (toxicity effects of the indole derivatives) [2] | TrpB proficiency [1, 5] [%] | further results
18 | N#Cc1cccc2cc[nH]c12 [7-cyanoindole] | moderate (35-65%) or low proficiency (5-35%) | – | – | –
19 | Brc1cccc2[nH]ccc12 [4-bromoindole] | moderate (35-65%) or low proficiency (5-35%) | significant culture growth retardation | – | –
20 | Fc1ccc2[nH]ccc2c1 [5-fluoroindole] | moderate (35-65%) or low proficiency (5-35%) | significant culture growth retardation | – | –
21 | Nc1cccc2cc[nH]c12 [7-aminoindole] | moderate (35-65%) or low proficiency (5-35%) | – | – | –
22 | Fc1cccc2[nH]ccc12 [4-fluoroindole] | moderate (35-65%) or low proficiency (5-35%) | significant culture growth retardation | 100 | TrpB proficiency [1, 4]: 27%
23 | Cc1cc2ccccc2[nH]1 [2-methylindole] | – | – | 100 | PsiD conversion to tryptamine product [3]: no tryptamine product could be detected
24 | Oc1cccc2cc[nH]c12 [7-hydroxyindole] | – | – | 100 | –
25 | N[C@@H](Cc1c(Cl)[nH]c2ccccc12)C(=O)O [2-chlorotryptophan] | – | – | – | PsiD conversion to tryptamine product [3]: neither tryptamine product was observed
26 | Clc1ccc2cc[nH]c2c1 [6-chloroindole] | moderate (35-65%) or low proficiency (5-35%) | significant culture growth retardation | – | –
27 | Fc1cccc2cc[nH]c12 [7-fluoroindole] | moderate (35-65%) or low proficiency (5-35%) | significant culture growth retardation | 95 | TrpB proficiency [1, 4]: 45%
28 | Cc1cccc2[nH]ccc12 [4-methylindole] | moderate (35-65%) or low proficiency (5-35%) | significant culture growth retardation | 93 | TrpB proficiency [1, 4]: 22%
29 | COc1cccc2[nH]ccc12 [4-methoxyindole] | moderate (35-65%) or low proficiency (5-35%) | – | – | –
30 | COc1ccc2cc[nH]c2c1 [6-methoxyindole] | moderate (35-65%) or low proficiency (5-35%) | – | – | –
31 | Brc1cccc2cc[nH]c12 [7-bromoindole] | – | – | 100 | –
32 | Nc1cccc2[nH]ccc12 [4-aminoindole] | moderate (35-65%) or low proficiency (5-35%) | significant culture growth retardation | 23 | –
33 | Clc1cccc2[nH]ccc12 [4-chloroindole] | moderate (35-65%) or low proficiency (5-35%) | significant culture growth retardation | – | –
34 | Brc1ccc2cc[nH]c2c1 [6-bromoindole] | moderate (35-65%) or low proficiency (5-35%) | significant culture growth retardation | – | –
